Reference: patent US20240350493A1 (Kadmon Corporation, LLC, priority 2022, published 2024)
Structures can show the parent of a compound that is named as a salt. Marks after values point to notes of the source that are not given here.

Assays:
[1] = solubility of belumosudil mesylate in solvents; assay type: physicochemical
[2] = human, in vivo
ROCK2 = ROCK2 (Homo sapiens, UniProt O75116); test: ROCK2 inhibition; assay type: biochemical
[3] = phase I two-part drug-drug interaction study, plasma pharmacokinetics (Example 1); assay type: in vivo, human
Source text: The secondary objective was to provide additional information on the safety and tolerability of this dose regimen in healthy males.
This was a single center, non-randomized, DDI study in 35 (Part 1) and 38 (Part 2) healthy males. The key inclusion criterion was males aged 18 to 55 years (inclusive). […] In Part 2, co-administration with omeprazole was studied. The study design is illustrated in FIG. 1.
At least a 2-to 8-day washout occurred between each period to account for a minimum of 5 half-lives of the active moieties dosed in the preceding period.
Blood samples were collected into 6 mL K,EDTA tubes and were processed within 30 minutes of collection. The resultant plasma was then frozen within 90 minutes of collection and stored at […] until shipment to the bioanalytical laboratory.
For each comparison, PK parameters were natural log transformed and analyzed using mixed effect modeling with treatment included as a fixed effect and subject as a random effect. Adjusted geometric mean ratios (GMRs) and corresponding 90% CIs were calculated.

patients with cGVHD = details: cited from earlier work
[4] = 200 mg belumosudil BID + omeprazole
[5] = 200 mg belumosudil BID + omeprazole, first dose
[6] = 200 mg belumosudil BID + omeprazole, second dose
[7] = 200 mg belumosudil BID alone, first dose
[8] = 200 mg belumosudil BID alone, second dose
[9] = 200 mg belumosudil single dose + rifampicin
[10] = 200 mg belumosudil single dose alone
[11] = coadministration of itraconazole
[12] = coadministration of rabeprazole
[13] = 200 mg belumosudil single dose + itraconazole
[14] = 200 mg belumosudil single dose + rabeprazole

Sequence of ROCK2 (O75116 whole entry): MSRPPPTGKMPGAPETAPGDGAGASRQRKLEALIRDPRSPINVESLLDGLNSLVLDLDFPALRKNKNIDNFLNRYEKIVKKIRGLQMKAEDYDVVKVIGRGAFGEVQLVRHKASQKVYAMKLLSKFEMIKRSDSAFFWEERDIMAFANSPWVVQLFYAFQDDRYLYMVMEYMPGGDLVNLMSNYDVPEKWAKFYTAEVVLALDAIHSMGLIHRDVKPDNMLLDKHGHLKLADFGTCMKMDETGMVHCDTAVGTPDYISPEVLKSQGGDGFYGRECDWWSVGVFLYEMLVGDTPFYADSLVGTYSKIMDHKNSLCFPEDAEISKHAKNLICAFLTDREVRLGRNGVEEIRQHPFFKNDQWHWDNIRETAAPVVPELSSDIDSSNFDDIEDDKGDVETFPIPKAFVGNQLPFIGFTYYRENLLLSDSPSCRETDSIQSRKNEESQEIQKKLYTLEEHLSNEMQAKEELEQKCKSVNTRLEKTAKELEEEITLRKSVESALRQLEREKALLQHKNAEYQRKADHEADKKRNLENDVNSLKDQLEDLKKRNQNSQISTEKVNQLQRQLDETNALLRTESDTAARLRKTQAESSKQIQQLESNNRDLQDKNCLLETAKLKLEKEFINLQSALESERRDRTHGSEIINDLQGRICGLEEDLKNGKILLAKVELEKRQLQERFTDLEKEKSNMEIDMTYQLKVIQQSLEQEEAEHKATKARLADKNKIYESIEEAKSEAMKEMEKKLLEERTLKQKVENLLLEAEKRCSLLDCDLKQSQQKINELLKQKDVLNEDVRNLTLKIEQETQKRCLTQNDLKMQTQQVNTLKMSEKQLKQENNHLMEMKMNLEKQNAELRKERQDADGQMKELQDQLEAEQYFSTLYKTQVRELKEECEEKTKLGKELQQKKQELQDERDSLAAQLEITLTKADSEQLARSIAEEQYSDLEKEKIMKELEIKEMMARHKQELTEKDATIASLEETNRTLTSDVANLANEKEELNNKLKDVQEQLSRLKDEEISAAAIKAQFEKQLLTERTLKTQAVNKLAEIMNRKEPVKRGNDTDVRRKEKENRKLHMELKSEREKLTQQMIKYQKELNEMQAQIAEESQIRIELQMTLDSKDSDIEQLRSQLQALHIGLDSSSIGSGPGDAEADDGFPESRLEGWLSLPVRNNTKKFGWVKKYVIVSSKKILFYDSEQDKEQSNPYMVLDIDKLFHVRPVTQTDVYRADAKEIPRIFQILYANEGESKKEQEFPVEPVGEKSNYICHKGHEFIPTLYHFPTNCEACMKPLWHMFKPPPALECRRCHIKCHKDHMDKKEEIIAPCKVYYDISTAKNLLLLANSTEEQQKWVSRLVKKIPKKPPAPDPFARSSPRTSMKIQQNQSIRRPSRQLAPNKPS

CC(C)NC(=O)COc1cccc(-c2nc(Nc3ccc4[nH]ncc4c3)c3ccccc3n2)c1 [Belumosudil mesylate, 2-{3-[4-(1H-indazol-5-ylamino)-2-quinazolinyl]phenoxy}-N-(propan-2-yl) acetamide methanesulfonate (1:1)]
solubility in DMF ([1]; DMF): slightly soluble
solubility in DMSO ([1]; DMSO): soluble
solubility in methanol ([1]; methanol): slightly soluble
solubility in water ([1]; water): practically insoluble

NC(=O)COc1cccc(-c2nc(Nc3ccc4[nH]ncc4c3)c3ccccc3n2)c1 [KD025m1]
metabolite exposure relative to the parent [2]: < 5%
ROCK2 activity of metabolite (ROCK2): active
increase in AUClast vs belumosudil alone [3]: 150%
increase in Cmax vs belumosudil alone [3]: 129%
AUC0-24, arithmetic mean (SD) [3, 4]: 113 (81.2) ^q ng*h/mL
AUC0-24, geometric mean (geometric CV %) [3, 4]: 91.5 (76.3) ^q; ng*h/mL
AUCinf, arithmetic mean (SD) [3, 4]: 279 (122) ^t ng*h/mL
AUCinf, geometric mean (geometric CV %) [3, 4]: 265 (47.6) ^t; ng*h/mL
AUClast, arithmetic mean (SD) [3, 4]: 164 (100) ^q ng*h/mL
AUClast, geometric mean (geometric CV %) [3, 4]: 123 (114.0) ^q; ng*h/mL
t1/2, arithmetic mean (SD) [3, 4]: 2.31 (0.848) ^u h
t1/2, geometric mean (geometric CV %) [3, 4]: 2.21 (39.0) ^u; h
Cmax, arithmetic mean (SD) [3, 5]: 20.5 (11.4) ^j ng/mL
Cmax, geometric mean (geometric CV %) [3, 5]: 18.0 (54.6) ^j; ng/mL
Tmax, median (range) [3, 5]: 3.00 (1.00-5.00) h
Cmax, arithmetic mean (SD) [3, 6]: 21.2 (11.3) ^s ng/mL
Cmax, geometric mean (geometric CV %) [3, 6]: 18.9 (48.7) ^s; ng/mL
Tmax, median (range) [3, 6]: 16.50 (13.50-22.00) h
AUC0-24, arithmetic mean (SD) ([3]; 200 mg belumosudil BID alone): 187 (161) ^l ng*h/mL
AUC0-24, geometric mean (geometric CV %) ([3]; 200 mg belumosudil BID alone): 138 (91.3) ^l; ng*h/mL
AUCinf, arithmetic mean (SD) ([3]; 200 mg belumosudil BID alone): 287 (149) ^o ng*h/mL
AUCinf, geometric mean (geometric CV %) ([3]; 200 mg belumosudil BID alone): 259 (47.7) ^o; ng*h/mL
AUClast, arithmetic mean (SD) ([3]; 200 mg belumosudil BID alone): 205 (153) ^l ng*h/mL
AUClast, geometric mean (geometric CV %) ([3]; 200 mg belumosudil BID alone): 157 (93.0) ^l; ng*h/mL
t1/2, arithmetic mean (SD) ([3]; 200 mg belumosudil BID alone): 2.30 (0.757) ^p h
t1/2, geometric mean (geometric CV %) ([3]; 200 mg belumosudil BID alone): 2.19 (34.2) ^p; h
Cmax, arithmetic mean (SD) [3, 7]: 25.8 (12.6) ^n ng/mL
Cmax, geometric mean (geometric CV %) [3, 7]: 23.8 (39.6) ^n; ng/mL
Tmax, median (range) [3, 7]: 2.00 (1.00-6.00) h
Cmax, arithmetic mean (SD) [3, 8]: 26.1 (12.7) ^n ng/mL
Cmax, geometric mean (geometric CV %) [3, 8]: 23.6 (46.4) ^n; ng/mL
Tmax, median (range) [3, 8]: 13.98 (13.00-24.00) h
AUC0-24, arithmetic mean (SD) [3, 9]: 159 (61.2) ^c ng*h/mL
AUC0-24, geometric mean (geometric CV %) [3, 9]: 148 (41.9) ^c; ng*h/mL
AUCinf, arithmetic mean (SD) [3, 9]: 190 (37.7) ^i ng*h/mL
AUCinf, geometric mean (geometric CV %) [3, 9]: 187 (20.0) ^i; ng*h/mL
AUClast, arithmetic mean (SD) [3, 9]: 136 (55.5) ^c ng*h/mL
AUClast, geometric mean (geometric CV %) [3, 9]: 126 (41.7) ^c; ng*h/mL
Cmax, arithmetic mean (SD) [3, 9]: 55.2 (17.1) ^c ng/mL
Cmax, geometric mean (geometric CV %) [3, 9]: 52.5 (34.0) ^c; ng/mL
Tmax, median (range) [3, 9]: 2.08 (1.50-5.00) h
t1/2, arithmetic mean (SD) [3, 9]: 1.55 (0.325) ^j h
t1/2, geometric mean (geometric CV %) [3, 9]: 1.51 (21.4) ^j; h
AUC0-24, arithmetic mean (SD) [3, 10]: 81.3 (30.7) ^e ng*h/mL
AUC0-24, geometric mean (geometric CV %) [3, 10]: 75.6 (42.1) ^e; ng*h/mL
AUClast, arithmetic mean (SD) [3, 10]: 58.4 (18.7) ^e ng*h/mL
AUClast, geometric mean (geometric CV %) [3, 10]: 55.3 (36.4) ^e; ng*h/mL
Cmax, arithmetic mean (SD) [3, 10]: 24.9 (9.21) ^b ng/mL
Cmax, geometric mean (geometric CV %) [3, 10]: 23.2 (40.0) ^b; ng/mL
Tmax, median (range) [3, 10]: 3.00 (1.00-5.00) h
t1/2, arithmetic mean (SD) [3, 10]: 1.96 (0.931) ^f h
t1/2, geometric mean (geometric CV %) [3, 10]: 1.82 (38.5) ^f; h
metabolite concentrations [3, 11]: nonquantifiable levels in all but 1 subject
metabolite levels [3, 12]: nonquantifiable in all but 1 subject

O=C(O)COc1cccc(-c2nc(Nc3ccc4[nH]ncc4c3)c3ccccc3n2)c1 [KD025m2]
ROCK2 activity of metabolite (ROCK2): inactive
AUC0-24, geometric mean (geometric CV %) [3, 4]: 767 (115.3) ^k; ng*h/mL
AUCinf, arithmetic mean (SD) [3, 4]: 1430 (981) ^q ng*h/mL
AUCinf, geometric mean (geometric CV %) [3, 4]: 1110 (90.3) ^q; ng*h/mL
AUClast, arithmetic mean (SD) [3, 4]: 1160 (998) ^k ng*h/mL
AUClast, geometric mean (geometric CV %) [3, 4]: 783 (122.6) ^k; ng*h/mL
t1/2, arithmetic mean (SD) [3, 4]: 3.20 (2.10) ^r h
t1/2, geometric mean (geometric CV %) [3, 4]: 2.76 (55.1) ^r h
Cmax, arithmetic mean (SD) [3, 5]: 129 (133) ^l ng/mL
Cmax, geometric mean (geometric CV %) [3, 5]: 72.3 (166.8) ^l; ng/mL
Cmax, arithmetic mean (SD) [3, 6]: 172 (160) ^n ng/mL
Cmax, geometric mean (geometric CV %) [3, 6]: 115 (121.8) ^n; ng/mL
AUC0-24, geometric mean (geometric CV %) ([3]; 200 mg belumosudil BID alone): 1950 (82.3) ^k; ng*h/mL
AUCinf, arithmetic mean (SD) ([3]; 200 mg belumosudil BID alone): 2550 (2200) ^c ng*h/mL
AUCinf, geometric mean (geometric CV %) ([3]; 200 mg belumosudil BID alone): 1900 (90.4) ^c; ng*h/mL
AUClast, arithmetic mean (SD) ([3]; 200 mg belumosudil BID alone): 2690 (2090) ^k ng*h/mL
AUClast, geometric mean (geometric CV %) ([3]; 200 mg belumosudil BID alone): 2030 (91.1) ^k; ng*h/mL
t1/2, arithmetic mean (SD) ([3]; 200 mg belumosudil BID alone): 5.70 (5.24) ^c h
t1/2, geometric mean (geometric CV %) ([3]; 200 mg belumosudil BID alone): 4.32 (78.9) ^c h
Cmax, arithmetic mean (SD) [3, 7]: 343 (202) ^k ng/mL
Cmax, geometric mean (geometric CV %) [3, 7]: 282 (75.6) ^k; ng/mL
Cmax, arithmetic mean (SD) [3, 8]: 323 (207) ng/mL
Cmax, geometric mean (geometric CV %) [3, 8]: 257 (83.9); ng/mL
AUC0-24, geometric mean (geometric CV %) [3, 13]: 745 (70.7); ng*h/mL
AUCinf, arithmetic mean (SD) [3, 13]: 1050 (792) ^c ng*h/mL
AUCinf, geometric mean (geometric CV %) [3, 13]: 843 (73.7) ^c; ng*h/mL
AUClast, arithmetic mean (SD) [3, 13]: 891 (710) ng*h/mL
AUClast, geometric mean (geometric CV %) [3, 13]: 704 (75.5); ng*h/mL
Cmax, arithmetic mean (SD) [3, 13]: 257 (152) ng/mL
Cmax, geometric mean (geometric CV %) [3, 13]: 221 (60.8); ng/mL
t1/2, arithmetic mean (SD) [3, 13]: 4.00 (3.69) ^g h
t1/2, geometric mean (geometric CV %) [3, 13]: 2.89 (92.2) ^g h
AUC0-24, geometric mean (geometric CV %) [3, 14]: 110 (84.0) ^v; ng*h/mL
AUCinf, arithmetic mean (SD) [3, 14]: 175 (19.4) ^t ng*h/mL
AUCinf, geometric mean (geometric CV %) [3, 14]: 174 (11.1) ^t; ng*h/mL
AUClast, arithmetic mean (SD) [3, 14]: 108 (76.5) ^v ng*h/mL
AUClast, geometric mean (geometric CV %) [3, 14]: 85.8 (81.6) ^v; ng*h/mL
Cmax, arithmetic mean (SD) [3, 14]: 29.4 (23.8) ^c ng/mL
Cmax, geometric mean (geometric CV %) [3, 14]: 23.5 (70.7) ^c; ng/mL
t1/2, arithmetic mean (SD) [3, 14]: 3.59 (1.84) ^w h
t1/2, geometric mean (geometric CV %) [3, 14]: 3.10 (69.6) ^w h
AUC0-24, geometric mean (geometric CV %) [3, 9]: 376 (56.7) ^c; ng*h/mL
AUCinf, arithmetic mean (SD) [3, 9]: 444 (237) ^h ng*h/mL
AUCinf, geometric mean (geometric CV %) [3, 9]: 396 (50.2) ^h; ng*h/mL
AUClast, arithmetic mean (SD) [3, 9]: 407 (237) ^c ng*h/mL
AUClast, geometric mean (geometric CV %) [3, 9]: 349 (61.1) ^c; ng*h/mL
Cmax, arithmetic mean (SD) [3, 9]: 169 (85.8) ^c ng/mL
Cmax, geometric mean (geometric CV %) [3, 9]: 148 (57.3) ^c; ng/mL
t1/2, arithmetic mean (SD) [3, 9]: 1.31 (0.368) ^h
t1/2, geometric mean (geometric CV %) [3, 9]: 1.27 (26.8) ^h
AUC0-24, geometric mean (geometric CV %) [3, 10]: 1100 (63.7); ng*h/mL
AUCinf, arithmetic mean (SD) [3, 10]: 1460 (910) ^d ng*h/mL
AUCinf, geometric mean (geometric CV %) [3, 10]: 1230 (69.5) ^d; ng*h/mL
AUClast, arithmetic mean (SD) [3, 10]: 1260 (811) ng*h/mL
AUClast, geometric mean (geometric CV %) [3, 10]: 1050 (68.1); ng*h/mL
Cmax, arithmetic mean (SD) [3, 10]: 379 (182) ng/mL
Cmax, geometric mean (geometric CV %) [3, 10]: 337 (54.7); ng/mL
t1/2, arithmetic mean (SD) [3, 10]: 3.86 (3.24) ^d h
t1/2, geometric mean (geometric CV %) [3, 10]: 3.03 (76.8) ^d h
decrease in AUCinf vs belumosudil alone [3, 11]: 33%
decrease in AUClast vs belumosudil alone [3, 11]: 33%
decrease in Cmax vs belumosudil alone [3, 11]: 35%
decrease in AUC0-24 vs belumosudil alone ([3]; coadministration of omeprazole): ~63%
decrease in Cmax (first dose) vs belumosudil alone ([3]; coadministration of omeprazole): ~73%
decrease in Cmax, second dose vs belumosudil alone ([3]; coadministration of omeprazole): ~57%
decrease in AUClast vs belumosudil alone [3, 12]: 94%
decrease in Cmax vs belumosudil alone [3, 12]: 93%

C=CC(=O)N1CCC[C@@H](n2nc(-c3ccc(Oc4ccccc4)cc3)c3c(N)ncnc32)C1 [ibrutinib]
discontinuation rate because of treatment-emergent adverse events (TEAEs) (patients with cGVHD): 43%
